pIC50: −log10 of the molar value. Activity calls are given as the source filed them. The calls are words filed in the database; no cut-off is given here.
Experiments:
CYP1A2 = CYP1A2 (Homo sapiens, UniProt P05177); experiment: Stability assessed as recombinant human CYP1A2 mediated compound metabolism by measuring parent compound remaining after 30 mins relative to control; type: ADME; details: read-out: Stability
[1] = Clearance in ICR mouse at 0.5 mg/kg, iv measured after 0.0833 to 120 hrs by LC-MS-MS analysis; type: ADME, organism-based; details: in vivo
[2] = Half life in ICR mouse at 0.5 mg/kg, iv measured after 0.0833 to 120 hrs by LC-MS-MS analysis; type: ADME, organism-based; details: in vivo
[3] = Cmax in ICR mouse at 2 mg/kg, po measured after 0.0833 to 120 hrs by LC-MS-MS analysis; type: ADME, organism-based; parameters: dose 2 mg/kg, route oral; details: in vivo
[4] = biological target: Dipeptidyl peptidase 4 (Mus musculus) (UniProt P28843); experiment: Ex-vivo inhibition of DPP4 in plasma isolated from ob/ob mouse treated at 3 to 30 mg/kg, po measured after 2 to 72 hrs by fluorescence based assay; type: functional, organism-based
Rhesus monkey [5] = experiment: Ex-vivo inhibition of DPP4 in plasma isolated from rhesus monkey treated at 10 mg/kg, ig after 12 days by fluorescence based assay relative to control; type: functional; details: Macaca mulatta, po, 288 h
Rhesus monkey [6] = experiment: Ex-vivo inhibition of DPP4 in plasma isolated from rhesus monkey treated at 10 mg/kg, ig after 2 weeks by fluorescence based assay relative to control; type: functional; details: Macaca mulatta, po, 336 h
Mus musculus [7] = experiment: Antidiabetic activity in ob/ob mouse assessed as reduction in decrease in HbA1c level at 3 to 10 mg/kg, po dosed once every three days for 31 day; type: functional, organism-based
Dipeptidyl peptidase 8 = Dipeptidyl peptidase 8 (Homo sapiens, UniProt Q6V1X1); experiment: Inhibition of human recombinant DPP8 incubated for 15 mins using Gly-Pro-7-AMC substrate
Dipeptidyl peptidase 9 = Dipeptidyl peptidase 9 (Homo sapiens, UniProt Q86TI2); experiment: Inhibition of human recombinant DPP9 incubated for 15 mins using Gly-Pro-7-AMC substrate
CYP2A6 = CYP2A6 (Homo sapiens, UniProt P11509); experiment: Stability assessed as recombinant human CYP2A6 mediated compound metabolism by measuring parent compound remaining after 30 mins relative to control; type: ADME; details: read-out: Stability
CYP2B6 = CYP2B6 (Homo sapiens, UniProt P20813); experiment: Stability assessed as recombinant human CYP2B6 mediated compound metabolism by measuring parent compound remaining after 30 mins relative to control; type: ADME; details: read-out: Stability
CYP2C8 = CYP2C8 (Homo sapiens, UniProt P10632); experiment: Stability assessed as recombinant human CYP2C8 mediated compound metabolism by measuring parent compound remaining after 30 mins relative to control; type: ADME; details: read-out: Stability
CYP2D6 = CYP2D6 (Homo sapiens, UniProt P10635); experiment: Stability assessed as recombinant human CYP2D6 mediated compound metabolism by measuring parent compound remaining after 30 mins relative to control; type: ADME; details: read-out: Stability
CYP3A4 = CYP3A4 (Homo sapiens, UniProt P08684); experiment: Stability assessed as recombinant human CYP3A4 mediated compound metabolism by measuring parent compound remaining after 30 mins relative to control; type: ADME; details: read-out: Stability
Cytochrome P450 2A6 [8] = biological target: T1, Cytochrome P450 2A6 (Homo sapiens, UniProt P11509); experiment: (§1) Inhibition of recombinant human CYP2A6; type: ADME
T1 sequence (P11509 whole entry): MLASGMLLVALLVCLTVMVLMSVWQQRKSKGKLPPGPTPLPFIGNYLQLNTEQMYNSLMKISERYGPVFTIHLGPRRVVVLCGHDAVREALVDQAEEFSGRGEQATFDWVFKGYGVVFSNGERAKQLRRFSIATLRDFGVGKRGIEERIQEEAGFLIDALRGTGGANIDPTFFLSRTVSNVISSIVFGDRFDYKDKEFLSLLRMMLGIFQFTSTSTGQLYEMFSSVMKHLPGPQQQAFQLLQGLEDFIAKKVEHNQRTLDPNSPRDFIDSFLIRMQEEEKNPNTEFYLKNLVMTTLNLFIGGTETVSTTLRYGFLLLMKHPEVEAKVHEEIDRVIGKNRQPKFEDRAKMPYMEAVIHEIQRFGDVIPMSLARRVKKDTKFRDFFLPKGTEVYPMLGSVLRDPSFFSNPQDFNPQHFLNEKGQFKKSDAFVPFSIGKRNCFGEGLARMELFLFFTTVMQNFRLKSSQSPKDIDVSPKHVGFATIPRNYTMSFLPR

Cytochrome P450 2D6 [9] = biological target: T2, Cytochrome P450 2D6 (Homo sapiens, UniProt P10635); experiment: (§2) Inhibition of recombinant human CYP2D6; type: ADME
Cytochrome P450 2E1 [10] = biological target: T3, Cytochrome P450 2E1 (Homo sapiens, UniProt P05181); experiment: (§3) Inhibition of recombinant human CYP2E1; type: ADME
Cytochrome P450 3A5 [11] = biological target: T4, Cytochrome P450 3A5 (Homo sapiens, UniProt P20815); experiment: Inhibition of recombinant human CYP3A5 using testosterone as substrate; type: ADME
Cytochrome P450 2C8 [12] = biological target: T5, Cytochrome P450 2C8 (Homo sapiens, UniProt P10632); experiment: (§4) Inhibition of recombinant human CYP2C8; type: ADME
T5 sequence (P10632 whole entry): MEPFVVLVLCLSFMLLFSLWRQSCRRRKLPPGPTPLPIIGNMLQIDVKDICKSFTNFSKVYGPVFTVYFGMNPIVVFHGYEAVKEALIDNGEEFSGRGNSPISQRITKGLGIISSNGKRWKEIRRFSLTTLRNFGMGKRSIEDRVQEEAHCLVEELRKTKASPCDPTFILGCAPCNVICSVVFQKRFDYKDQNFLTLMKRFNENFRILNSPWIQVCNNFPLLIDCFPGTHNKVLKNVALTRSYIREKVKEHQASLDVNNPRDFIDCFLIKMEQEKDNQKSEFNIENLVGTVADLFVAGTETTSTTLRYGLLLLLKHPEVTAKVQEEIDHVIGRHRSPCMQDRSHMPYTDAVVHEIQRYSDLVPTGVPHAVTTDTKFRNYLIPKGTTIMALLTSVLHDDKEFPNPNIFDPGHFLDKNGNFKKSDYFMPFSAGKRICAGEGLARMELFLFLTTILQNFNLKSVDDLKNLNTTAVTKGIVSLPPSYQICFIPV

Cytochrome P450 3A4 [13] = biological target: T6, Cytochrome P450 3A4 (Homo sapiens, UniProt P08684); experiment: (§5) Inhibition of recombinant human CYP3A4 using midazolam as substrate; type: ADME
Cytochrome P450 2A6 [14] = biological target: T1, Cytochrome P450 2A6; experiment: as §1; type: ADME; remark: listed apart in the source
Cytochrome P450 2C19 [15] = biological target: T7, Cytochrome P450 2C19 (Homo sapiens, UniProt P33261); experiment: (§6) Inhibition of recombinant human CYP2C19; type: ADME
Cytochrome P450 2D6 [16] = biological target: T2, Cytochrome P450 2D6; experiment: as §2; type: ADME; remark: listed apart in the source
Cytochrome P450 3A4 [17] = biological target: T6, Cytochrome P450 3A4; experiment: Inhibition of recombinant human CYP3A4 using testosterone as substrate; type: ADME
Cytochrome P450 3A4 [18] = biological target: T6, Cytochrome P450 3A4; experiment: as §5; type: ADME; remark: listed apart in the source
Cytochrome P450 3A5 [19] = biological target: T4, Cytochrome P450 3A5; experiment: Inhibition of recombinant human CYP3A5 using midazolam as substrate; type: ADME
Cytochrome P450 2C19 [20] = biological target: T7, Cytochrome P450 2C19; experiment: as §6; type: ADME; remark: listed apart in the source
Cytochrome P450 2D6 [21] = biological target: T2, Cytochrome P450 2D6; experiment: as §2; type: ADME; remark: listed apart in the source
Cytochrome P450 2E1 [22] = biological target: T3, Cytochrome P450 2E1; experiment: as §3; type: ADME; remark: listed apart in the source
Cytochrome P450 2C8 [23] = biological target: T5, Cytochrome P450 2C8; experiment: as §4; type: ADME; remark: listed apart in the source
Cytochrome P450 3A4 [24] = biological target: T6, Cytochrome P450 3A4; experiment: as §5; type: ADME; remark: listed apart in the source
[25] = Toxicity in female Sprague-Dawley rat during 3-month repeated dose toxicology study; details: in vivo
[26] = AUC in T2D patient; type: ADME; details: human, in vivo
Mus musculus [27] = experiment: Antidiabetic activity in ob/ob mouse assessed as reduction in decrease in HbA1c level at 1 mg/kg, po dosed once every three days for 31 day relative to control; type: functional; parameters: scale not given: the % may be the effect or the level left
Mus musculus [28] = experiment: Antidiabetic activity in ob/ob mouse assessed as reduction in decrease in HbA1c level at 10 mg/kg, po dosed once every three days for 31 day relative to control; type: functional; parameters: scale not given: the % may be the effect or the level left

T2 sequence (P10635 whole entry): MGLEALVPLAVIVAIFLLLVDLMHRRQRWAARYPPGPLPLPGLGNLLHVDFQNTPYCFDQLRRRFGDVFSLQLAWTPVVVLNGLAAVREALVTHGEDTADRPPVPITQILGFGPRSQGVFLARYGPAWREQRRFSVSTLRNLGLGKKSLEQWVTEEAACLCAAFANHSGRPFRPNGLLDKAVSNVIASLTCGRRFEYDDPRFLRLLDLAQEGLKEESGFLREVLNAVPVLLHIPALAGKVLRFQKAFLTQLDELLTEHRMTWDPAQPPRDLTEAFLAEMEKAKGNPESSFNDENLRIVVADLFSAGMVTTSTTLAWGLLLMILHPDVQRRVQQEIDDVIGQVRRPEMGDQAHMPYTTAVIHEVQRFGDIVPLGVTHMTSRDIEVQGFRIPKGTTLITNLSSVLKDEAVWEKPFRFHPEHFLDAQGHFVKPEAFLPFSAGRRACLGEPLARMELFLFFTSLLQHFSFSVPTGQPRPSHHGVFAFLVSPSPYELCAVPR
T6 sequence (P08684 whole entry): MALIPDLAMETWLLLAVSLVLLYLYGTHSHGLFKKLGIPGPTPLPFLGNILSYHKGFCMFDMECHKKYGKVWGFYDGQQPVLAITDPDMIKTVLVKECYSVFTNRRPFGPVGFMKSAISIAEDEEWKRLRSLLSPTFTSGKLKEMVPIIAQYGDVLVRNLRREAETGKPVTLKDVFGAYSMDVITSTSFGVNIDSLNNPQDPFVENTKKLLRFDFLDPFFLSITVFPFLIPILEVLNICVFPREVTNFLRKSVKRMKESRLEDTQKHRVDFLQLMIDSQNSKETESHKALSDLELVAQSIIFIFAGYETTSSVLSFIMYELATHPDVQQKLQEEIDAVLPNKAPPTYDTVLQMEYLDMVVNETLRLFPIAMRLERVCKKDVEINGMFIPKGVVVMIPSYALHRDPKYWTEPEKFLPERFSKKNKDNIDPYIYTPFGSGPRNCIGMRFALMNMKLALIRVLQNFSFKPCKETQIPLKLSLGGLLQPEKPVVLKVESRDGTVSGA
T7 sequence (P33261 whole entry): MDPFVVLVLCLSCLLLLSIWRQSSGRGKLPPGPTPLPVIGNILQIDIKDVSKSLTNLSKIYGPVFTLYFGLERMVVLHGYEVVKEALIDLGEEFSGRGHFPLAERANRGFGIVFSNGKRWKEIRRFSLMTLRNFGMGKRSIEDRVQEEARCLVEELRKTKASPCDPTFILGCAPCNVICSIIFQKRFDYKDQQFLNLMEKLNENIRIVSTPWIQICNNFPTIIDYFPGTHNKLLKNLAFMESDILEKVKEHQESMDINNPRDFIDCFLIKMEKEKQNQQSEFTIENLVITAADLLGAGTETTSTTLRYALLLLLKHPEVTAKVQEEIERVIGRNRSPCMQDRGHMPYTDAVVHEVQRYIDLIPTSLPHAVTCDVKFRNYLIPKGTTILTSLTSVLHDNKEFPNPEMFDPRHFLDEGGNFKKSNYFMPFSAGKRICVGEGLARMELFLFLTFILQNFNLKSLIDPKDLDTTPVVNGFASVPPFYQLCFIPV
T3 sequence (P05181 whole entry): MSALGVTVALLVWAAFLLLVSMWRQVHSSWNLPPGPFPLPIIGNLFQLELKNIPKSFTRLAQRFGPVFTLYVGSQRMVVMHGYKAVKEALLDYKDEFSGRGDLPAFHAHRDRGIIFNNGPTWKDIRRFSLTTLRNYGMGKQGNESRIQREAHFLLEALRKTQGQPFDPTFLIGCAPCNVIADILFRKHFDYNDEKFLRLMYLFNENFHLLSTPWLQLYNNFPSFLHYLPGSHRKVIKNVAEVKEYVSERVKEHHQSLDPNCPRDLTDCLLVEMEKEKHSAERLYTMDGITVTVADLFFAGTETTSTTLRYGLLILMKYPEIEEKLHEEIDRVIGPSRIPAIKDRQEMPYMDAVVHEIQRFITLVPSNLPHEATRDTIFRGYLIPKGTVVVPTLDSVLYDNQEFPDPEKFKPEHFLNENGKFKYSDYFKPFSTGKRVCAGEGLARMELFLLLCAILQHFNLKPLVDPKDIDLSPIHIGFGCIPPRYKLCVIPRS
T4 sequence (P20815 whole entry): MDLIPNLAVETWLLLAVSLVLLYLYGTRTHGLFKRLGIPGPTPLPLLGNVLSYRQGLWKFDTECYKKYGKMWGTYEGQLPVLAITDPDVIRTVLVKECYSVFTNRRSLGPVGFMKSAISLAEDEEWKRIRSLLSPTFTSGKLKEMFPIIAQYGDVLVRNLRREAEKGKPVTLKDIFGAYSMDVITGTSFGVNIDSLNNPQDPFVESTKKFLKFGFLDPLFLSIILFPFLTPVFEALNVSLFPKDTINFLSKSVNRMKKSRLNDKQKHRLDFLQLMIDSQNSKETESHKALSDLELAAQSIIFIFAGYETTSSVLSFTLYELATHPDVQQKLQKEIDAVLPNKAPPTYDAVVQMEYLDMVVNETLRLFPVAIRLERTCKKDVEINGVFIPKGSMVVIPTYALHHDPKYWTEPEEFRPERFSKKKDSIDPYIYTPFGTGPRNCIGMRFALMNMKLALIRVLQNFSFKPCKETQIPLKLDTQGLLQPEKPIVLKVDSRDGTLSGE
Sequence of CYP2D6 (P10635 whole entry): as the sequence (P10635 whole entry) above
Sequence of Dipeptidyl peptidase 4 (Mus musculus) (P28843 whole entry, looked up): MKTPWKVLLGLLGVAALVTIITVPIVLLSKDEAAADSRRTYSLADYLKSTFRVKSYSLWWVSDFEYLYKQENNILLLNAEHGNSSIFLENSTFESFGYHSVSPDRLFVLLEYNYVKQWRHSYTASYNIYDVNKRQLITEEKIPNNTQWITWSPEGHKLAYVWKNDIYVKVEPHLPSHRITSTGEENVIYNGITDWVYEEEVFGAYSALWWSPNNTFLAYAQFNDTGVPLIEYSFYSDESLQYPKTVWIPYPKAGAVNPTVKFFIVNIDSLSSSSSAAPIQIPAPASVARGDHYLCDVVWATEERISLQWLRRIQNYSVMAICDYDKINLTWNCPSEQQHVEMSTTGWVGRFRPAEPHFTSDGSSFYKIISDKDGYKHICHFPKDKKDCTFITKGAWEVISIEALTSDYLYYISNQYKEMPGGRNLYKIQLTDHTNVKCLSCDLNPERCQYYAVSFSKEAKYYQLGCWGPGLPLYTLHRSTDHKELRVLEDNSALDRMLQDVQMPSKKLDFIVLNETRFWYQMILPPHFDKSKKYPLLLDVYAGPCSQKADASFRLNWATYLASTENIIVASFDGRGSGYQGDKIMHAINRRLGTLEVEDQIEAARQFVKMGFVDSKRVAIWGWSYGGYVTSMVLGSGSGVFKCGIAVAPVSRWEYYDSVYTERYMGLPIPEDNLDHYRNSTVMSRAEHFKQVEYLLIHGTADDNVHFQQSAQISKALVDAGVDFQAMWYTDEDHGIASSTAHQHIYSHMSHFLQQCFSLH
Sequence of CYP2B6 (P20813 whole entry): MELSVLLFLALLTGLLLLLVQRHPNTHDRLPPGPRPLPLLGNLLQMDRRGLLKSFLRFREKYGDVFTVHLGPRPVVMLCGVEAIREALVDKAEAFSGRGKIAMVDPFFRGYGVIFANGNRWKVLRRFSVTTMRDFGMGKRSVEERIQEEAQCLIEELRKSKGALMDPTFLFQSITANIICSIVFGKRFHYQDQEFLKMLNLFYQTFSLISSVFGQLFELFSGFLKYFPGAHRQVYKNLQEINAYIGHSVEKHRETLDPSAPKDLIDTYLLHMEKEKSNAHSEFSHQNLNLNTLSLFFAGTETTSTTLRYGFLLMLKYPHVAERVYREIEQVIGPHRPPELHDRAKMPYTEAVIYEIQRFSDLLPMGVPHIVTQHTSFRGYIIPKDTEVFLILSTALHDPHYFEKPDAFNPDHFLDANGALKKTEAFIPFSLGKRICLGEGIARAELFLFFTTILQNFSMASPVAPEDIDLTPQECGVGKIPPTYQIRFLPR
Sequence of CYP3A4 (P08684 whole entry): as the sequence (P08684 whole entry) above
Sequence of CYP1A2 (P05177 whole entry): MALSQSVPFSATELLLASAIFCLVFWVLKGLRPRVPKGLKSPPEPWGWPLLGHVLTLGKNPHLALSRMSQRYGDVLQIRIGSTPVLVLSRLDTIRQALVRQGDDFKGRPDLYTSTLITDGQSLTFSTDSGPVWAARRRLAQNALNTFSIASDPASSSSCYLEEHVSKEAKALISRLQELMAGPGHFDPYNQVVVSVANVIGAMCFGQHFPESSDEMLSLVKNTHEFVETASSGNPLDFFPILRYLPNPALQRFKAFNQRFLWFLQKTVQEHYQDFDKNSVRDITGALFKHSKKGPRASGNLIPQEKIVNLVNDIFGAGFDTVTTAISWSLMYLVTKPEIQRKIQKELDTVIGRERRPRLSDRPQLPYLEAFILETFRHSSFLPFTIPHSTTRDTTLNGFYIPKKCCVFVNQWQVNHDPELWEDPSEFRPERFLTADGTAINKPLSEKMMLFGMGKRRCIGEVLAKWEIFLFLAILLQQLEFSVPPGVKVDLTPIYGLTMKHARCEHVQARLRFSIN

SMILES: CS(=O)(=O)n1cc2c(n1)CN([C@@H]1C[C@H](N)[C@@H](c3cc(F)ccc3F)O[C@@H]1C(F)(F)F)C2 [COFROGLIPTIN]
- remaining at 0.5 h (CYP1A2): > 95%
- clearance [1]: 2.57 mL/min/kg
- half-life [2]: 25.6 h
- Cmax [3]: 352 ng/mL
- inhibition [4]: Dose-dependent effect
- inhibition in vivo at 10 mg/kg (Rhesus monkey [5]): > 80%
- inhibition in vivo at 10 mg/kg (Rhesus monkey [6]): 76.2%
- Activity (Mus musculus [7]): Active
- pIC50 (Dipeptidyl peptidase 8): < 4.00
- pIC50 (Dipeptidyl peptidase 9): < 4.00
- remaining at 0.5 h (CYP2A6): > 95%
- remaining at 0.5 h (CYP2B6): > 95%
- remaining at 0.5 h (CYP2C8): > 95%
- remaining at 0.5 h (CYP2D6): > 95%
- remaining at 0.5 h (CYP3A4): > 95%
- pIC50 (Cytochrome P450 2A6 [8]): < 4.00
- pIC50 (Cytochrome P450 2D6 [9]): < 4.00
- pIC50 (Cytochrome P450 2E1 [10]): < 4.00
- pIC50 (Cytochrome P450 3A5 [11]): < 4.00
- pIC50 (Cytochrome P450 2C8 [12]): < 4.00
- pIC50 (Cytochrome P450 3A4 [13]): < 4.00
- pIC50 (Cytochrome P450 2A6 [14]): < 4.00
- pIC50 (Cytochrome P450 2C19 [15]): < 4.00
- pIC50 (Cytochrome P450 2D6 [16]): < 4.00
- pIC50 (Cytochrome P450 3A4 [17]): < 4.00
- pIC50 (Cytochrome P450 3A4 [18]): < 4.00
- pIC50 (Cytochrome P450 3A5 [19]): < 4.00
- pIC50 (Cytochrome P450 2C19 [20]): < 4.00
- pIC50 (Cytochrome P450 2D6 [21]): < 4.00
- pIC50 (Cytochrome P450 2E1 [22]): < 4.00
- pIC50 (Cytochrome P450 2C8 [23]): 4.12
- pIC50 (Cytochrome P450 3A4 [24]): 4.34
- NOAEL at 3 month [25]: 100 mg/kg
- AUC [26]: 34900 ng·h/mL
- Activity (Mus musculus [27]): 3.1%
- Activity (Mus musculus [28]): 16.2%

Reference: ChEMBL document CHEMBL4613324, “Design, Synthesis, and Evaluation of a Series of Novel Super Long-Acting DPP-4 Inhibitors for the Treatment of Type 2 Diabetes” (J Med Chem, 2020)
